Measurements published in US20250332181A1, “ANTIBIOTIC METHODS AND COMPOSITIONS” (AI BIO DISCOVERY LLC, priority 2024, published 2025).
“Also recorded” adds a separate entry of the source.

Legend:
Type in all cases: cell-based
Pseudomonas aeruginosa = test: Disk diffusion test on Pseudomonas aeruginosa
Excerpt: (§1) Applicants undertook two rounds of studies. […] When agar plating was required, both rounds of Applicants' studies were undertaken using similar disk diffusion methods on bacteria grown on agar substrates in Petri dishes. These methods conform to those prescribed by the Clinical & Laboratory Standards Institute (https://clsi.org). […]

Acinetobacter baumannii = test: Disk diffusion test on Acinetobacter baumannii
Excerpt: as §1

Klebsiella pneumoniae = test: Disk diffusion test on Klebsiella pneumoniae; conditions: for antibacterial activity of the agent by itself: single agent disk, ceftazidime 30 μg, meropenem 10 μg, Compound C 15 μg
Excerpt: (§2) Applicants undertook two rounds of studies. The results of the first round are illustrated in FIGS. 1A-9B and discussed in the related text. The results of the second round of studies are illustrated in FIGS. 10-23 and discussed in the related text. When agar plating was required, both rounds of Applicants' studies were undertaken using similar disk diffusion methods on bacteria grown on agar substrates in Petri dishes. These methods conform to those prescribed by the Clinical & Laboratory Standards Institute (https://clsi.org).
(§3) Disk Diffusion tests with beta-lactam antibiotics with and without the beta-lactamase inhibitor of FIG. 1A. Closely spaced disks disclose possible synergistic or inhibitory effects between the antibiotics and the compound of FIG. 1A (labeled in FIGS. 4A-9B as Compound C). The distances between disks show the effectiveness of the possible synergy. […] Each disk contains either the compound of FIG. 1A or an antibiotic (one of FIGS. 3A-3D), or the compound of […] and an antibiotic (one of FIGS. 3A-3D). When a disk with the compound of FIG. 1A is in proximity to a disk with an antibiotic both agents diffuse into the bacterial growth medium, allowing us to observe the area where both agents are present at the same time. These disk diffusion tests were evaluated with the following:
(§4) As noted above, Applicants' studies were undertaken using similar disk diffusion methods on bacteria grown on agar substrates in Petri dishes. These methods conform to those prescribed by the Clinical & Laboratory Standards Institute (https://clsi.org).

Citrobacter freundii = test: Disk diffusion test on Citrobacter freundii
Excerpt: as §1

[1] = system: methicillin-resistant coagulase-negative Staphylococcus sps. (MRCoNS); test: Disk diffusion test on MRCoNS; conditions: for antibacterial activity of the agent by itself: single agent disk, penicillin G 10 μg, cefoxitin 30 μg, Compound C 15 μg
Excerpt: as §2, §3, §4

[2] = system: MSSA (methicillin-sensitive Staphylococcus aureus); test: Disk diffusion test on Staphylococcus aureus (MSSA); conditions: for action of the antibiotic by itself on the Staphylococcus aureus strain: used either separately or in combination
Excerpt: as §1

Escherichia coli = test: Disk diffusion test on Escherichia coli
Excerpt: as §1

[3] = in combination with ceftazidime
[4] = in combination with piperacillin
[5] = in combination with ceftazidime (second round)
[6] = in combination with meropenem (second round)
[7] = in combination with ceftriaxone

Compound	effectiveness of the combination with antibiotic (Pseudomonas aeruginosa; in combination with aztreonam)	effectiveness of the combination with antibiotic (Pseudomonas aeruginosa; in combination with cefepime)	effectiveness of the combination with antibiotic (Pseudomonas aeruginosa; in combination with meropenem)	effectiveness of the combination with antibiotic (Pseudomonas aeruginosa; [4])	effectiveness of the combination with antibiotic (Acinetobacter baumannii; in combination with cefepime)	effectiveness of the combination with antibiotic (Acinetobacter baumannii; [3])	effectiveness of the combination with antibiotic (Acinetobacter baumannii; in combination with meropenem)	effectiveness of the combination with antibiotic (Klebsiella pneumoniae; [5])	further results
OB(O)c1cc(F)cc(F)c1F [2,3,5-Trifluorophenylboronic acid]	enhanced effectiveness	enhanced effectiveness	enhanced effectiveness	enhanced effectiveness	enhanced effectiveness	enhanced effectiveness	enhanced effectiveness		effectiveness of the combination with antibiotic (Pseudomonas aeruginosa; [3]): enhanced effectiveness
Nc1cc(B(O)O)cc(C(=O)O)c1 [3-Amino-5-carboxylphenylboronic acid]					enhanced effectiveness				
O=C(O)c1cccc(B(O)O)c1F [3-Carboxy-2-fluorophenylboronic acid]		partial effectiveness	partial effectiveness	partial effectiveness	enhanced effectiveness	enhanced effectiveness	enhanced effectiveness	enhanced effectiveness	effectiveness of the combination with antibiotic (Klebsiella pneumoniae; in combination with cefepime): enhanced effectiveness; effectiveness of the combination with antibiotic (Klebsiella pneumoniae; [6]): enhanced effectiveness; effectiveness of the combination with antibiotic (Citrobacter freundii; in combination with meropenem): partial effectiveness
O=C(O)c1cc(B(O)O)ccc1Cl [5-Borono-2-chlorobenzoic acid]					enhanced effectiveness	enhanced effectiveness	enhanced effectiveness	enhanced effectiveness	effectiveness of the combination with antibiotic (Klebsiella pneumoniae; in combination with cefepime): enhanced effectiveness
O=C(O)c1cc(B(O)O)ccc1F [5-Borono-2-fluorobenzoic acid]	enhanced effectiveness	enhanced effectiveness		enhanced effectiveness	enhanced effectiveness		enhanced effectiveness		
O=C(O)c1ccc(Cl)c(B(O)O)c1 [5-Carboxy-2-chlorophenylboronic acid]			enhanced effectiveness	enhanced effectiveness	enhanced effectiveness	enhanced effectiveness		enhanced effectiveness	effectiveness of the combination with antibiotic (Klebsiella pneumoniae; in combination with cefepime): enhanced effectiveness; effectiveness of the combination with antibiotic (Citrobacter freundii; in combination with meropenem): partial enhanced effectiveness
O=C(O)c1ccc(F)c(B(O)O)c1 [5-Carboxy-2-fluorophenylboronic Acid]			enhanced effectiveness	proved effective	enhanced effectiveness	enhanced effectiveness	enhanced effectiveness	enhanced effectiveness	effectiveness of the combination with antibiotic (Klebsiella pneumoniae; in combination with cefepime): enhanced effectiveness; effectiveness of the combination with antibiotic (Klebsiella pneumoniae; [6]): enhanced effectiveness
CC1(C)OB(c2ccc(C(=O)O)s2)OC1(C)C [5-Carboxythiophene-2-boronic acid pinacol ester]	enhanced effectiveness	partial effectiveness			enhanced effectiveness	enhanced effectiveness	enhanced effectiveness	enhanced effectiveness	effectiveness of the combination with antibiotic ([1]; in combination with ampicillin): enhanced effectiveness; effectiveness of the combination with antibiotic ([1]; in combination with penicillin G (second round)): enhanced effectiveness; effectiveness of the combination with antibiotic (Klebsiella pneumoniae; [7]): enhanced effectiveness; effectiveness of the combination with antibiotic (Klebsiella pneumoniae; [6]): enhanced effectiveness; effectiveness of the combination with antibiotic (Citrobacter freundii; [3]): enhanced effectiveness; effectiveness of the combination with antibiotic (Citrobacter freundii; [7]): enhanced effectiveness; effectiveness of the combination with antibiotic (Citrobacter freundii; in combination with meropenem): enhanced effectiveness; effectiveness of the combination with antibiotic ([2]; in combination with ampicillin): enhanced effectiveness; effectiveness of the combination with antibiotic ([2]; in combination with penicillin G): enhanced effectiveness; effectiveness of the combination with antibiotic (Pseudomonas aeruginosa; in combination with cefoperazone): enhanced effectiveness; effectiveness of the combination with antibiotic (Escherichia coli; in combination with amoxycillin): enhanced effectiveness; effectiveness of the combination with antibiotic (Escherichia coli; [3]): enhanced effectiveness; effectiveness of the combination with antibiotic (Escherichia coli; [7]): enhanced effectiveness; effectiveness of the combination with antibiotic (Escherichia coli; in combination with meropenem): enhanced effectiveness
O=C(O)c1cc(B(O)O)cc([N+](=O)[O-])c1 [Benzoic acid, 3-borono-5-nitro]	enhanced effectiveness	enhanced effectiveness			enhanced effectiveness				
CO[C@@]1(NC(=O)Cc2cccs2)C(=O)N2C(C(=O)O)=C(COC(N)=O)CS[C@@H]21 [Cefoxitin, cefoxitin, reference compound]									antibacterial activity of the agent by itself [1]: active on its own
CC(C)(O/N=C(\C(=O)N[C@@H]1C(=O)N2C(C(=O)[O-])=C(C[n+]3ccccc3)CS[C@H]12)c1csc(N)n1)C(=O)O [Ceftazidime, ceftazidime, reference compound]									antibacterial activity of the agent by itself (Klebsiella pneumoniae): very little antibacterial activity; also recorded: by itself is inactive
C[C@@H](O)[C@H]1C(=O)N2C(C(=O)O)=C(S[C@@H]3CN[C@H](C(=O)N(C)C)C3)[C@H](C)[C@H]12 [Meropenem, meropenem, reference compound]									antibacterial activity of the agent by itself (Klebsiella pneumoniae): by itself IS active
CC1(C)S[C@@H]2[C@H](NC(=O)Cc3ccccc3)C(=O)N2[C@H]1C(=O)O [Penicillin G, penicillin G, reference compound]									antibacterial activity of the agent by itself [1]: no activity by itself; antibacterial activity of the agent by itself ([1]; listed as penicillin G): no antibacterial activity; action of the antibiotic by itself on the Staphylococcus aureus strain [2]: completely resistant
CC1(C)OB(c2cccc(CC(=O)O)c2)OC1(C)C [Phenylacetic acid-3-boronic acid pinacol ester]	enhanced effectiveness	enhanced effectiveness	enhanced effectiveness	enhanced effectiveness	enhanced effectiveness				
CC1(C)S[C@@H]2[C@H](NC(=O)[C@H](N)c3ccc(O)cc3)C(=O)N2[C@H]1C(=O)O [amoxicillin, reference compound]									action of the antibiotic by itself on the Staphylococcus aureus strain [2]: completely resistant
